According to patent US7879852B2, “Melanocortin receptor agonists” (LG Life Sciences Ltd., priority 2006, dated 2011):

Target: T1, human melanocortin receptor 4 (MC4R) (Homo sapiens, UniProt P32245)
T1 construct: expressed in transfected cells; grown with 200 ug/ml Geneticin
Assay: Luciferase assay
Format: cell-based
Details: agonistic activity at MC4R (Table 18); patent does not state whether luciferase or cAMP assay
Method: Cell lines expressing human melanocortin receptor 4 (MC4R) were dissociated from tissue culture dishes by rinsing with Ca^++, Mg^++ free DPBS, treated with 1× Trypsin/EDTA solution for 1 min at 37° C., and resuspended with DMRM (GIBCO-BRL) supplemented with 10% FBS. The cells were counted and diluted with DMEM supplemented with 10% FBS and 200 ug/ml of Geneticin to […]. 90 ul of cell suspension was plated onto each well of 96-well black and clear bottom culture plates (Costar). After the incubation for 24 h in the atmosphere of 6% CO2 at 37° C., 10 ul of NDP-MSH and test compounds diluted in DMSO were added to each well. The final DMSO concentration was 1%. After 4 h of incubation in the atmosphere of 6% CO2 at 37° C., 50 ul of Bright-Glo (Promega) was added to each well. Luciferase activity was measured by using L-Max luminometer (Molecular Device). The amount of luciferase activity induced by treatment with NDP-MSH was defined as 100% to obtain the relative efficacy of test compounds. The EC0.5 MSH was defined as the concentration of test compounds that results in half maximal activity of NDP-MSH. The EC50 was defined as the concentration of test compound that results in half maximal activity of its own.

T1 sequence (P32245 whole entry): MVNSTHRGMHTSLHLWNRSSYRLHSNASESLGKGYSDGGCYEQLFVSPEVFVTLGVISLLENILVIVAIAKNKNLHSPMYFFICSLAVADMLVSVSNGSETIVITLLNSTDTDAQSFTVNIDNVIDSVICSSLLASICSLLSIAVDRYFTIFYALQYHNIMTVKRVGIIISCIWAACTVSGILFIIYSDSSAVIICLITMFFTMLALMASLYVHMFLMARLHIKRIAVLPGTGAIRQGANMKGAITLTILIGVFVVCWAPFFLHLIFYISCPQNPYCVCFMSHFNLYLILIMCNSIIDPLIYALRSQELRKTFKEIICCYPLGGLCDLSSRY

CN(C)C(=O)[C@@H]1C[C@H](N(C(=O)C(C)(C)C)c2ccc(F)cc2F)CN1C(=O)[C@@H]1CN(C(C)(C)C)C[C@H]1c1ccc(Cl)cc1 [Example D1, (4S)-1-{[(3S,4R)-1-tert-butyl-4-(4-chlorophenyl)pyrrolidine-3-yl]carbonyl}-4-[(2,4-difluorophenyl)(2,2-dimethylpropanoyl)amino]-N,N-dimethyl-L-prolineamide]
EC50: 47 nM

CC1CCC(N(C(=O)c2ccoc2)C2CCN(C(=O)C3CNCC3c3ccc(Cl)cc3)C2)CC1 (stereo not drawn) [Example E1-14]
EC50: 23 nM

CC1CCC(N(C(=O)C2=CCOC2)C2CCN(C(=O)C3CNCC3c3ccc(Cl)cc3)C2)CC1 (stereo not drawn) [Example E1-23]
EC50: 21 nM

CC1(C)CCC(N(C(=O)C(C)(C)CO)[C@H]2CCN(C(=O)[C@@H]3CN(C(N)=O)C[C@H]3c3ccc(Cl)cc3)C2)CC1 [Example E2-2]
EC50: 7 nM

CC1(C)CCC(N(C(=O)C(C)(C)C)[C@H]2CCN(C(=O)[C@@H]3CN(C(N)=O)C[C@H]3c3ccc(Cl)cc3)C2)CC1 [Example E2-3]
EC50: 45 nM

CCN(C)C(=O)[C@@H]1C[C@H](N(C(=O)[C@@H]2CCCO2)C2CCC(C)(C)CC2)CN1C(=O)[C@@H]1CN(C2CCOCC2)C[C@H]1c1ccc(Cl)cc1 [Example E5-2, (4S)-1-{[(3S,4R)-4-(4-chlorophenyl)-1-(tetrahydro-2H-pyran-4-yl)pyrrolidine-3-yl]carbonyl}-4-{(4,4-dimethylcyclohexyl)[(2S)-tetrahydrofuran-2-ylcarbonyl]amino}-N-ethyl-N-methyl-L-prolineamide]
EC50: 5 nM

CCNC(=N)N1C[C@@H](C(=O)N2CC[C@H](N(C(=O)C(C)C)[C@H]3CC[C@@H](C)CC3)C2)[C@H](c2ccc(Cl)cc2)C1 [Example E10, N-[(3S)-1-({(3S,4R)-4-(4-chlorophenyl)-1-[(ethylamino)(imino)methyl]pyrrolidine-3-yl}carbonyl)pyrrolidine-3-yl]2-methyl-N-(cis-4-methylcyclohexyl)propaneamide]
EC50: 4 nM

(4S)-1-[(3S,4R)-1-tert-butyl-4-(4-chlorophenyl)pyrrolidine-3-yl]carbonyl)-4-{(4,4-dimethylcyclohexyl)[(2S)-tetrahydrofuran-2-ylcarbonyl]amino}-N,N-ethylmethyl-L-prolineamide [Example A2]
EC50: 16 nM

S-(3-{[(3S,5S)-1-{[(3S,4R)-1-tert-butyl-4-(2,4-difluorophenyl)pyrrolidine-3-yl]carbonyl}-5-{[ethyl(methyl)amino]carbonyl}pyrrolidine-3-yl](4,4-dimethylcyclohexyl)amino}-2,2-dimethyl-3-oxopropyl)ethanethioate [Example C13]
EC50: 40 nM
